Results on four compounds are retold here after patent US10828301B2, “2,4-pyrimidinediamine compounds and their uses” (Rigel Pharmaceuticals, Inc, priority 2002, dated 2020).

Data set [1] in a line: Oral bioavailability / pharmacokinetics in rats. It counts as in vivo. The following applies: rat, in vivo. The procedure:
Over 50 2,4-pyrimidinediamine compounds of the invention were tested for oral bioavailability. For the study, compounds were dissolved in various vehicles (e.g. PEG 400 solution and CMC suspension) for intravenous and oral dosing in the rats. Following administration of the drug, plasma samples were obtained and extracted. The plasma concentrations of the compounds were determined by high performance liquid chromatography/tandem mass spectrometry (LC/MS/MS) methods. Pharmacokinetic analyses were performed based on the plasma concentration data. The pharmacokinetic parameters of interest include Clearance (CL), Volume of distribution at steady-state (Vss), terminal half-life (t1/2), and oral bioavailability (% F).

Data set [2] is classed as in vivo. The following applies: rat, oral doses of 50, 150 and 300 mg/kg given for 32 days.
Data set [3] deals with basophils in whole human peripheral blood. Briefly: Basophil IgE activation: histamine release assay. The following applies: Homo sapiens, anti-IgE activation. It counts as cell-based. The procedure:
(§1) The basophil activation assay was carried out using whole human peripheral blood from donors allergic to dust mites with the majority of the red blood cells removed by dextran sedimentation. Human peripheral blood was mixed 1:1 with 3% dextran T500 and RBCs were allowed to settle for 20-25 min. The upper fraction was diluted with 3 volumes of D-PBS and cells were spun down for 10 min at 1500 rpm, RT. Supernatant was aspirated and cells were washed in an equal volume MT-buffer. Finally, cells were resuspended in MT-buffer containing 0.5% DMSO in the original blood volume. 80 uL cells were mixed with 20 uL compound in the presence of 0.5% DMSO, in triplicate, in a V-bottom 96-well tissue culture plate. A dose range of 8 compound concentrations was tested resulting in a 10-point dose response curve including maximum (stimulated) and minimum (unstimulated) response. […] The cells were stimulated for 30 minutes at 37° C., 5% CO2. The plate was spun for 10 min at 1500 rpm at room temperature and 80 uL the supernatant was harvested for histamine content analysis using the histamine ELISA kit supplied by Immunotech. The ELISA was performed according to supplier's instructions.

Data set [4] has as its system cultured human mast cells (CHMC). Briefly: CHMC high cell density IgE activation: degranulation (hexos, tryptase, histamine), leukotriene (LTC4) and cytokine (TNFalpha, IL-13) assays. It counts as cell-based. The following applies: anti-IgE activation. In short, it runs like this:
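IgE-sensitized CHMC at 1-2×10^6 cells/ml in MT buffer were pretreated with compound for 1 h at 37 °C (0.5% DMSO final), then stimulated with anti-IgE for 1 h. Tryptase was measured in 1:500-diluted supernatant. Pellets were re-incubated for 7 h with compound in CM media, and supernatants were assayed by ELISA.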

Data set [5] is described as follows: in vitro chromosomal aberration assay. It counts as cell-based.
The subject of data set [6] is basophils in whole human peripheral blood. Briefly: Basophil ionomycin activation: histamine release assay. The following applies: Homo sapiens. The data set is classed as cell-based. The procedure:
Assays for ionomycin-induced basophil cell degranulation were carried out as described for the Basophil IgE or Dustmite Activation Assay (Section 6.4.6, supra), with the exception that following incubation with compound, cells were stimulated with 20 μl of 2 μM ionomycin.

For data set [7] the test system is unchanged. Briefly: Basophil dustmite activation: histamine release assay. The data set is classed as cell-based. The following applies: read-out: Basophils Dust mite Histmine IC50. The procedure:
as §1, with “The plate was spun for 10 min at 1500 rpm at room temperature and 80 uL the supernatant was harvested for histamine content analysis using the histamine ELISA kit supplied by Immunotech.” left out

In data set [8] the test system is cultured human mast cells (CHMC). Briefly: CHMC low cell density IgE activation: tryptase and LTC4 assays. The data set is classed as cell-based. The following applies: Homo sapiens, Mast cell, Low Density CHMC, anti-IgE activation, tryptase readout; read-out: CHMC anti-IgE Tryptase. The method in brief:
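Degranulation measured after 30 min anti-IgE challenge at 37° C of CHMC plated at 1000-1500 cells/well following 1 h preincubation. Readouts: LTC4 by ELISA on donor-specific diluted supernatants, and tryptase activity from a 30 min room-temperature substrate reaction.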

For data set [9] the test system is unchanged. Briefly: CHMC low cell density ionomycin activation: tryptase assay. It counts as cell-based. The following applies: Homo sapiens, Mast cell, Low Density CHMC, ionomycin activation, tryptase readout; read-out: CHMC Ionomycin Tryptase.
Another data set concerns Jurkat cells. Briefly: Jurkat toxicity: Cell Titer Glo assay. It counts as cell-based. The following applies: Homo sapiens, 18 hours. On the procedure: Seed 50 μl cells (1×10^6/ml) into each well containing 50 μl compound. […] Shake plates for 1 minute to mix cells and compound. Incubate plates at 37° C. […] Next day, harvest 50 μl cells from each well, add to 50 μl Cell Titer Glo reagent ([…]). Shake plates for 1 minute. Read on luminometer.
A general note: In ATP-based viability assays light output follows the ATP content of the culture.

In another data set the test system is B-cell line BJAB. Briefly: BJAB toxicity: Cell Titer Glo assay. The data set is classed as cell-based. The following applies: Homo sapiens, 18 hours. On the procedure: Seed 50 μl cells (1×10^6/ml) into each well containing 50 μl compound. The final vehicle concentration is 0.5% DMSO, 1.5% MeOH. Shake plates for 1 minute to mix cells and compound. Incubate plates at 37° C. (5% CO2) for 18 hours. Next day, harvest 50 μl cells from each well, add to 50 μl Cell Titer Glo reagent ([…]). Shake plates for 1 minute. Read on luminometer.

The mark [10] stands for this setting: IL-13, read-out: CHMC high density IL-13.
[11] abbreviates: LTC4, read-out: CHMC high density LTC4.
Where [12] appears, read: TNF-alpha, read-out: CHMC high density TNF-alpha.
The mark [13] stands for this setting: hexosaminidase release, read-out: CHMC high density hexos.
Where [14] appears, read: histamine release, read-out: CHMC high density histamine.
[15] abbreviates: tryptase release, read-out: CHMC high density tryptase.

Where only a bound is given, the exact number is not on record here.

On to `Nc1cccc(Nc2ncc(F)c(Nc3cccc(N)c3)n2)c1` [Compound R921302, N2,N4-Bis(3-aminophenyl)-5-fluoro-2,4-pyrimidinediamine], for which, in data set [1], the “metabolic stability in pharmacokinetics studies” value is recorded as “most metabolically stable compound”. In data set [2], the tolerability result is recorded as “well tolerated”. Moreover, the IC50 worked out at 190 nM in data set [3]; 1670 nM in data set [4] (setting [10]); 514 nM in data set [4] (setting [11]); 1170 nM in [4] (setting [12]); 682 nM in [4] (setting [13]); 1590 nM in data set [4] (setting [14]). Further, the figures for the IC50 in [4] (setting [15]) and in data set [6] were 795 nM and more than 10 µM, respectively. Further, the clastogenic potential entry in data set [5] is “not clastogenic”.
For `O=C(NCCO)c1cc2cc(Nc3ncc(F)c(Nc4cccc(O)c4)n3)ccc2o1` [Compound R926497, 5-Fluoro-N4-(3-hydroxyphenyl)-N2-[2-(N-2-hydroxyethylamino)carbonylbenzofuran-5-yl]-2,4-pyrimidinediamine], the IC50 was 205 nM in data set [7]; 270 nM in [3]; more than 10000 nM in data set [4] (setting [10]); 1880 nM in data set [4] (setting [12]); 1110 nM in [4] (setting [13]); 1330 nM in data set [4] (setting [14]). For the same compound, the IC50 in data set [4] (setting [15]) was 1230 nM; in data set [8], 138 nM; in data set [9], more than 10 µM; in [6] it was more than 10 µM.
In the case of `OCCOc1cccc(Nc2ncc(F)c(Nc3cccc(OCCO)c3)n2)c1` [Compound R935075, N2,N4-Bis[3-(2-hydroxyethoxy)phenyl]-5-fluoro-2,4-pyrimidinediamine], the IC50 in the data set on Jurkat cells is more than 4.33 µM; in the data set with B-cell line BJAB, more than 4.33 µM; in data set [4] (setting [11]), less than 220 nM; in data set [4] (setting [12]) it was more than 2000 nM; in data set [4] (setting [13]), 647 nM; in data set [4] (setting [15]) it was 1210 nM. In addition, the IC50 in data set [8] was 930 nM; in data set [9], more than 10 µM.
Take `Cc1cc(Nc2ncc(F)c(Nc3cccc(O)c3)n2)cc(Cl)c1O` [Compound R940233, N2-(3-Chloro-4-hydroxy-5-methylphenyl)-5-fluoro-N4-(3-hydroxyphenyl)-2,4-pyrimidinediamine]: the IC50 was more than 4.33 µM in the data set on Jurkat cells; more than 4.33 µM in the data set on B-cell line BJAB; 1780 nM in [4] (setting [10]); 118 nM in [4] (setting [11]); 2250 nM in data set [4] (setting [12]); 577 nM in data set [4] (setting [13]). Besides, the IC50 in [4] (setting [14]) was 586 nM; in [4] (setting [15]), 642 nM; in data set [8], 132 nM; in data set [9], more than 10 µM.
